In PubChem BioAssay AID1259407 (Chemical Carcinogenesis Research Information System (CCRIS), 2018):
Activity calls are given as the source filed them. No rule for the calls is given here.

System: CCRIS mutagenicity, Ames/micronucleus/aberration tests
Assay: CCRIS mutagenicity studies
[1] = Test System: AMES SALMONELLA TYPHIMURIUM, Strain/Indicator: TA98, Metabolic Activation: HAMSTER, LIVER, S-9, AROCLOR 1254 (10%), Method: PREINCUBATION
[2] = Test System: AMES SALMONELLA TYPHIMURIUM, Strain/Indicator: TA98, Metabolic Activation: NONE, Method: PREINCUBATION
[3] = Test System: AMES SALMONELLA TYPHIMURIUM, Strain/Indicator: TA98, Metabolic Activation: RAT, LIVER, S-9, AROCLOR 1254 (10%), Method: PREINCUBATION
[4] = Test System: AMES SALMONELLA TYPHIMURIUM, Strain/Indicator: TA100, Metabolic Activation: HAMSTER, LIVER, S-9, AROCLOR 1254 (10%), Method: PREINCUBATION
[5] = Test System: AMES SALMONELLA TYPHIMURIUM, Strain/Indicator: TA100, Metabolic Activation: NONE, Method: PREINCUBATION
[6] = Test System: AMES SALMONELLA TYPHIMURIUM, Strain/Indicator: TA100, Metabolic Activation: RAT, LIVER, S-9, AROCLOR 1254 (10%), Method: PREINCUBATION
[7] = Test System: AMES SALMONELLA TYPHIMURIUM, Strain/Indicator: TA1535, Metabolic Activation: HAMSTER, LIVER, S-9, AROCLOR 1254 (10%), Method: PREINCUBATION
[8] = Test System: AMES SALMONELLA TYPHIMURIUM, Strain/Indicator: TA1535, Metabolic Activation: NONE, Method: PREINCUBATION
[9] = Test System: AMES SALMONELLA TYPHIMURIUM, Strain/Indicator: TA1535, Metabolic Activation: RAT, LIVER, S-9, AROCLOR 1254 (10%), Method: PREINCUBATION
[10] = Test System: AMES SALMONELLA TYPHIMURIUM, Strain/Indicator: TA1537, Metabolic Activation: NONE, Method: PREINCUBATION
[11] = Test System: AMES SALMONELLA TYPHIMURIUM, Strain/Indicator: TA98, Metabolic Activation: NONE, Method: STANDARD PLATE
[12] = Test System: AMES SALMONELLA TYPHIMURIUM, Strain/Indicator: TA98, Metabolic Activation: RAT, LIVER, S-9, AROCLOR 1254, Method: STANDARD PLATE
[13] = Test System: AMES SALMONELLA TYPHIMURIUM, Strain/Indicator: TA100, Metabolic Activation: NONE, Method: STANDARD PLATE
[14] = Test System: AMES SALMONELLA TYPHIMURIUM, Strain/Indicator: TA100, Metabolic Activation: RAT, LIVER, S-9, AROCLOR 1254, Method: STANDARD PLATE
[15] = Test System: AMES SALMONELLA TYPHIMURIUM, Strain/Indicator: TA1535, Metabolic Activation: NONE, Method: STANDARD PLATE
[16] = Test System: AMES SALMONELLA TYPHIMURIUM, Strain/Indicator: TA1535, Metabolic Activation: RAT, LIVER, S-9, AROCLOR 1254, Method: STANDARD PLATE
[17] = Test System: AMES SALMONELLA TYPHIMURIUM, Strain/Indicator: TA1537, Metabolic Activation: NONE, Method: STANDARD PLATE
[18] = Test System: AMES SALMONELLA TYPHIMURIUM, Strain/Indicator: TA1537, Metabolic Activation: RAT, LIVER, S-9, AROCLOR 1254, Method: STANDARD PLATE

## CC(CC(=O)O)C(=O)O (stereo not given)
Test System: AMES SALMONELLA TYPHIMURIUM, Strain/Indicator: TA97, Metabolic Activation: HAMSTER, LIVER, S-9, AROCLOR 1254 (10%), Method: PREINCUBATION
  mutagenic call: inactive; negative
Test System: AMES SALMONELLA TYPHIMURIUM, Strain/Indicator: TA97, Metabolic Activation: HAMSTER, LIVER, S-9, AROCLOR 1254 (30%), Method: PREINCUBATION
  mutagenic call: inactive; negative
Test System: AMES SALMONELLA TYPHIMURIUM, Strain/Indicator: TA97, Metabolic Activation: NONE, Method: PREINCUBATION
  mutagenic call: inactive; negative
Test System: AMES SALMONELLA TYPHIMURIUM, Strain/Indicator: TA97, Metabolic Activation: RAT, LIVER, S-9, AROCLOR 1254 (10%), Method: PREINCUBATION
  mutagenic call: inactive; negative
Test System: AMES SALMONELLA TYPHIMURIUM, Strain/Indicator: TA97, Metabolic Activation: RAT, LIVER, S-9, AROCLOR 1254 (30%), Method: PREINCUBATION
  mutagenic call: inactive; negative
[1]
  mutagenic call: inactive; negative
Test System: AMES SALMONELLA TYPHIMURIUM, Strain/Indicator: TA98, Metabolic Activation: HAMSTER, LIVER, S-9, AROCLOR 1254 (30%), Method: PREINCUBATION
  mutagenic call: inactive; negative
[2]
  mutagenic call: inactive; negative
[3]
  mutagenic call: inactive; negative
Test System: AMES SALMONELLA TYPHIMURIUM, Strain/Indicator: TA98, Metabolic Activation: RAT, LIVER, S-9, AROCLOR 1254 (30%), Method: PREINCUBATION
  mutagenic call: inactive; negative
[4]
  mutagenic call: inactive; negative
Test System: AMES SALMONELLA TYPHIMURIUM, Strain/Indicator: TA100, Metabolic Activation: HAMSTER, LIVER, S-9, AROCLOR 1254 (30%), Method: PREINCUBATION
  mutagenic call: inactive; negative
[5]
  mutagenic call: inactive; negative
[6]
  mutagenic call: inactive; negative
Test System: AMES SALMONELLA TYPHIMURIUM, Strain/Indicator: TA100, Metabolic Activation: RAT, LIVER, S-9, AROCLOR 1254 (30%), Method: PREINCUBATION
  mutagenic call: inactive; negative
[7]
  mutagenic call: inactive; negative
Test System: AMES SALMONELLA TYPHIMURIUM, Strain/Indicator: TA1535, Metabolic Activation: HAMSTER, LIVER, S-9, AROCLOR 1254 (30%), Method: PREINCUBATION
  mutagenic call: inactive; negative
[8]
  mutagenic call: inactive; negative
[9]
  mutagenic call: inactive; negative
Test System: AMES SALMONELLA TYPHIMURIUM, Strain/Indicator: TA1535, Metabolic Activation: RAT, LIVER, S-9, AROCLOR 1254 (30%), Method: PREINCUBATION
  mutagenic call: inactive; negative
Test System: AMES SALMONELLA TYPHIMURIUM, Strain/Indicator: TA1537, Metabolic Activation: HAMSTER, LIVER, S-9, AROCLOR 1254 (30%), Method: PREINCUBATION
  mutagenic call: inactive; negative
[10]
  mutagenic call: inactive; negative
Test System: AMES SALMONELLA TYPHIMURIUM, Strain/Indicator: TA1537, Metabolic Activation: RAT, LIVER, S-9, AROCLOR 1254 (30%), Method: PREINCUBATION
  mutagenic call: inactive; negative

## O=C1C=C[C@]2(O)c3c(ccc(O)c31)-c1ccc(O)c3c1[C@H]2C1OC1C3=O (stereo not given in full)
[11]
  mutagenic call: active; positive
[12]
  mutagenic call: active; positive
[13]
  mutagenic call: active; positive
[14]
  mutagenic call: active; positive
[15]
  mutagenic call: inactive; negative
[16]
  mutagenic call: inactive; negative
[17]
  mutagenic call: active; positive
[18]
  mutagenic call: active; positive

## Cc1cc(N(CCO)CCO)ccc1N=Nc1ccc(N)cc1
Test System: AMES SALMONELLA TYPHIMURIUM, Strain/Indicator: TA98, Metabolic Activation: HAMSTER, LIVER, S-9, AROCLOR 1254, Method: STANDARD PLATE
  mutagenic call: inactive; negative
[11]
  mutagenic call: inactive; negative
Test System: AMES SALMONELLA TYPHIMURIUM, Strain/Indicator: TA98, Metabolic Activation: RAT, LIVER, S-9, AROCLOR 1254, Method: PREINCUBATION
  mutagenic call: inactive; negative
[12]
  mutagenic call: inactive; negative
[13]
  mutagenic call: inactive; negative
[14]
  mutagenic call: inactive; negative
[15]
  mutagenic call: inactive; negative
[16]
  mutagenic call: inactive; negative
[17]
  mutagenic call: inactive; negative
[18]
  mutagenic call: inactive; negative
Test System: AMES SALMONELLA TYPHIMURIUM, Strain/Indicator: TA1538, Metabolic Activation: NONE, Method: STANDARD PLATE
  mutagenic call: inactive; negative
Test System: AMES SALMONELLA TYPHIMURIUM, Strain/Indicator: TA1538, Metabolic Activation: RAT, LIVER, S-9, AROCLOR 1254, Method: STANDARD PLATE
  mutagenic call: inactive; negative

## OCCN1CC1
Test System: CHINESE HAMSTER V-79, Strain/Indicator: V-79/6-THIOGUANINE, Metabolic Activation: NONE, Method: FLASK ASSAY
  mutagenic call: active; positive

## Cn1c(N=[N+]=[N-])nc2ccccc21
[11]
  mutagenic call: active; positive

## CCOC(=O)Nc1cccc2c1[nH]c1ccncc12
[10]
  mutagenic call: inactive; negative
Test System: AMES SALMONELLA TYPHIMURIUM, Strain/Indicator: TA1537, Metabolic Activation: RAT, LIVER, S-9, PHENOBARBITAL, Method: PREINCUBATION
  mutagenic call: inactive; negative

## Cc1ccc(Cl)c(N)c1
Test System: UDS RODENT HEPATOCYTES, Strain/Indicator: THY INCORP (NON-S-PHASE), Metabolic Activation: NONE, Method: AUTORADIOGRAPHY
  mutagenic call: inactive; negative

## O=C(OC[C@@H]1CO1)c1ccc([N+](=O)[O-])cc1
[13]
  mutagenic call: active; positive

## C=CC(=O)OCCOCCOCCOCCOC(=O)C=C
[1]
  mutagenic call: inactive; negative
[2]
  mutagenic call: inactive; negative
[3]
  mutagenic call: inactive; negative
[4]
  mutagenic call: inactive; negative
[5]
  mutagenic call: inactive; negative
[6]
  mutagenic call: inactive; negative
[7]
  mutagenic call: inactive; negative
[8]
  mutagenic call: inactive; negative
[9]
  mutagenic call: inactive; negative
Test System: AMES SALMONELLA TYPHIMURIUM, Strain/Indicator: TA1537, Metabolic Activation: HAMSTER, LIVER, S-9, AROCLOR 1254 (10%), Method: PREINCUBATION
  mutagenic call: inactive; negative
[10]
  mutagenic call: inactive; negative
Test System: AMES SALMONELLA TYPHIMURIUM, Strain/Indicator: TA1537, Metabolic Activation: RAT, LIVER, S-9, AROCLOR 1254 (10%), Method: PREINCUBATION
  mutagenic call: inactive; negative
Test System: CHINESE HAMSTER OVARY, Strain/Indicator: CHO-K1-BH4 (HGPRT)/6-THIOGUANINE, Metabolic Activation: NONE, Method: SUSPENSION/PLATE
  mutagenic call: active; positive
Test System: CHINESE HAMSTER OVARY, Strain/Indicator: CHO-K1-BH4 (HGPRT), Metabolic Activation: NONE, Method: MONOLAYER
  mutagenic call: active; positive
Test System: CHINESE HAMSTER OVARY, Strain/Indicator: CHO-K1-BH4 (HGPRT), Metabolic Activation: NONE, Method: SUSPENSION/PLATE
  mutagenic call: active; positive
Test System: MOUSE LYMPHOMA, Strain/Indicator: L5178Y (TK+/TK-), Metabolic Activation: NONE, Method: SUSPENSION/PLATE
  mutagenic call: active; positive
